In PMC12136037, “Type II kinase inhibitors that target Parkinson’s disease–associated LRRK2” (Science Advances, 2025):

Tests used:
Test in all cases: DSF 100 kinase selectivity screen;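 on dTm: compound tested at 20 µM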
Assay type in all cases: binding
[1] = target: T1, ~100 representative kinases (Homo sapiens, UniProt Q86V86); settings: protein PIM3; average of three replicates
T1 construct: Recombinant protein kinase domains with a concentration of 2 μM
Procedure, shortened: (§1)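 Each kinase domain, at 2 μM, is mixed with 20 μM test compound and SYPRO Orange in Hepes (20 mM, pH 7.5) with 500 mM NaCl. Temperature is then raised at 3°C/min and fluorescence-monitored unfolding yields the melting temperature change, ΔTm in degrees Celsius.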

[2] = target: T2, ~100 representative kinases (Homo sapiens, UniProt P07332); settings: protein FESA; average of three replicates
T2 construct: Recombinant protein kinase domains with a concentration of 2 μM
Procedure, shortened: as §1

[3] = target: T3, ~100 representative kinases (Homo sapiens, UniProt O95747); settings: protein OSR1; average of three replicates
T3 construct: Recombinant protein kinase domains with a concentration of 2 μM
Procedure, shortened: as §1

[4] = target: T4, ~100 representative kinases (Homo sapiens, UniProt P49761); settings: Protein CLK3; average of three replicates
T4 construct: Recombinant protein kinase domains with a concentration of 2 μM
T4 sequence (P49761 whole entry, the tested form may be a part): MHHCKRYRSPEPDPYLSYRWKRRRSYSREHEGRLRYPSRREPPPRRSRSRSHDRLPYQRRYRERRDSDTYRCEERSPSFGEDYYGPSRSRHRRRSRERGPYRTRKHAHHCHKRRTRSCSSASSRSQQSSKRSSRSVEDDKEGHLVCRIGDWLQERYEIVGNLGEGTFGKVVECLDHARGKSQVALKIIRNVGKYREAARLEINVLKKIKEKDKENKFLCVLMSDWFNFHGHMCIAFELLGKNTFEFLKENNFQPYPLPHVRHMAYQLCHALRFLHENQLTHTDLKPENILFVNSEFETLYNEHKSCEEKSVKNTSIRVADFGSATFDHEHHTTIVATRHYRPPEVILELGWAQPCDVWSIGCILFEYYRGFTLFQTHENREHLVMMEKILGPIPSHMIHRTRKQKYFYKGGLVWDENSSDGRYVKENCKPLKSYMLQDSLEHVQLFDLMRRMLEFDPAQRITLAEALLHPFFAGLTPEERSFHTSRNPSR
Procedure, shortened: as §1

[5] = target: T5, ~100 representative kinases (Homo sapiens, UniProt Q99986); settings: Protein VRK1; DSF; average of three replicates
T5 construct: Recombinant protein kinase domains with a concentration of 2 μM
T5 sequence (Q99986 1-396): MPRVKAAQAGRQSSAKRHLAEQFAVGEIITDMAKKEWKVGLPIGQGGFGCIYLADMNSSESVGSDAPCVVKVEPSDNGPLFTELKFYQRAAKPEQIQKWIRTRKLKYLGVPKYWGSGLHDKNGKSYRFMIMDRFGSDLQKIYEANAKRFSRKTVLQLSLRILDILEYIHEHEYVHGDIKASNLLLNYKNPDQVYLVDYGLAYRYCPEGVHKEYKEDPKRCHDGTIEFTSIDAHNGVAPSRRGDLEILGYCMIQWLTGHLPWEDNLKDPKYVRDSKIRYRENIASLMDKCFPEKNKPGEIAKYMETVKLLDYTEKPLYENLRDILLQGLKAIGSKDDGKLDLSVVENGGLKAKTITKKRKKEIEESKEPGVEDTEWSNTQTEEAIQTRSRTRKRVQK
Procedure, shortened: as §1

[6] = tested on: ~100 representative kinases; settings: for dTm: Protein BRD, average of three replicates; for # >5K: number of proteins of the DSF panel with dTm >5K
Procedure, shortened: as §1

[7] = target: T6, ~100 representative kinases (Homo sapiens, UniProt O94768); settings: Protein STK17B; DSF; average of three replicates
T6 construct: Recombinant protein kinase domains with a concentration of 2 μM
T6 sequence (O94768 1-372): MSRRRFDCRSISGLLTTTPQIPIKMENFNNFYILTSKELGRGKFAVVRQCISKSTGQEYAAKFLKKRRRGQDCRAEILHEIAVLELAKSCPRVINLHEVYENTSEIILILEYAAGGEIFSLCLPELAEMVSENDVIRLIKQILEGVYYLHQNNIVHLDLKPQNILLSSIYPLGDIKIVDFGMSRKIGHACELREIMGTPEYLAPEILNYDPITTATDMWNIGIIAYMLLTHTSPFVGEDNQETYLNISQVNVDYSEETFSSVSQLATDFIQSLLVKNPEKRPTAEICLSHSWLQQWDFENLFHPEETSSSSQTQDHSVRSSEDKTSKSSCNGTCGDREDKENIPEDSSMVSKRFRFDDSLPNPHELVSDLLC
Procedure, shortened: as §1

[8] = target: T7, ~100 representative kinases (Homo sapiens, UniProt Q9UEW8); settings: Protein STK39; DSF; average of three replicates
T7 construct: Recombinant protein kinase domains with a concentration of 2 μM
Procedure, shortened: as §1

[9] = target: T8, ~100 representative kinases (Homo sapiens, UniProt Q13188); settings: Protein STK3; DSF; average of three replicates
T8 construct: Recombinant protein kinase domains with a concentration of 2 μM
T8 sequence (Q13188 1-491): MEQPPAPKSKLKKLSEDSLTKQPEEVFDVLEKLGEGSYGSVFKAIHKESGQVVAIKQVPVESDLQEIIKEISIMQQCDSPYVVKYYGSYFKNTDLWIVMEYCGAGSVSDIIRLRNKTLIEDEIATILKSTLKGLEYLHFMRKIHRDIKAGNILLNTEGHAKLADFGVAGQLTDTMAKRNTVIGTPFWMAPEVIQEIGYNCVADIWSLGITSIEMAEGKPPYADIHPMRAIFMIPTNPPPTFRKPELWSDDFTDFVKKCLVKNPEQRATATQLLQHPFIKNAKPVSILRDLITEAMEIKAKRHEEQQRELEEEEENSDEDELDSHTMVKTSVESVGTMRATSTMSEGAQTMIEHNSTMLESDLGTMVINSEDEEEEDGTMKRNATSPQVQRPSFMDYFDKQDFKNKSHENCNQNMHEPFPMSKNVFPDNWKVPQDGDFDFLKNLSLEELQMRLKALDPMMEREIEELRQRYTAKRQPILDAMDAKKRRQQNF
Procedure, shortened: as §1

[10] = target: T9, ~100 representative kinases (Homo sapiens, UniProt Q9Y243); settings: Protein AKT3; average of three replicates
T9 construct: Recombinant protein kinase domains with a concentration of 2 μM
Procedure, shortened: as §1

[11] = target: T10, ~100 representative kinases (Homo sapiens, UniProt Q96SB4); settings: Protein SRPK1; DSF; average of three replicates
T10 construct: Recombinant protein kinase domains with a concentration of 2 μM
T10 sequence (Q96SB4 whole entry, the tested form may be a part): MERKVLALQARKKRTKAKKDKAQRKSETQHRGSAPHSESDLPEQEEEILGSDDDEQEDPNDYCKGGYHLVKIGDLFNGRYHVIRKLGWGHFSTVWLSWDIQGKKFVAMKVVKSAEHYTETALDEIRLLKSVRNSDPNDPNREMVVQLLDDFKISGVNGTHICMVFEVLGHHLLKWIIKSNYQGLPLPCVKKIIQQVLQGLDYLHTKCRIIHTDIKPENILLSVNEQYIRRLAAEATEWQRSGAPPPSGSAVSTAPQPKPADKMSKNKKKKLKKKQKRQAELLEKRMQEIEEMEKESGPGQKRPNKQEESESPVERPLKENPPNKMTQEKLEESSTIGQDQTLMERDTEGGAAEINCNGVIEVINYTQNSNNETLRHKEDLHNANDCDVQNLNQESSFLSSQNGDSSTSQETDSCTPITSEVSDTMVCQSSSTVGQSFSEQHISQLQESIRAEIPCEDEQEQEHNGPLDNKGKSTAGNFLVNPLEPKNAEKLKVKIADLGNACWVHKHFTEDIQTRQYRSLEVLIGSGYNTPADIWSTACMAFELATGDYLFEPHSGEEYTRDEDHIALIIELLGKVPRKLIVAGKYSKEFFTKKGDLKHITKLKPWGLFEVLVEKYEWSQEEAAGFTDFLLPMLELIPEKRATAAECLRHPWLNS
Procedure, shortened: as §1

[12] = target: T11, ~100 representative kinases (Homo sapiens, UniProt P54764); settings: Protein EPHA4; average of three replicates
T11 construct: Recombinant protein kinase domains with a concentration of 2 μM
T11 sequence (P54764 20-986): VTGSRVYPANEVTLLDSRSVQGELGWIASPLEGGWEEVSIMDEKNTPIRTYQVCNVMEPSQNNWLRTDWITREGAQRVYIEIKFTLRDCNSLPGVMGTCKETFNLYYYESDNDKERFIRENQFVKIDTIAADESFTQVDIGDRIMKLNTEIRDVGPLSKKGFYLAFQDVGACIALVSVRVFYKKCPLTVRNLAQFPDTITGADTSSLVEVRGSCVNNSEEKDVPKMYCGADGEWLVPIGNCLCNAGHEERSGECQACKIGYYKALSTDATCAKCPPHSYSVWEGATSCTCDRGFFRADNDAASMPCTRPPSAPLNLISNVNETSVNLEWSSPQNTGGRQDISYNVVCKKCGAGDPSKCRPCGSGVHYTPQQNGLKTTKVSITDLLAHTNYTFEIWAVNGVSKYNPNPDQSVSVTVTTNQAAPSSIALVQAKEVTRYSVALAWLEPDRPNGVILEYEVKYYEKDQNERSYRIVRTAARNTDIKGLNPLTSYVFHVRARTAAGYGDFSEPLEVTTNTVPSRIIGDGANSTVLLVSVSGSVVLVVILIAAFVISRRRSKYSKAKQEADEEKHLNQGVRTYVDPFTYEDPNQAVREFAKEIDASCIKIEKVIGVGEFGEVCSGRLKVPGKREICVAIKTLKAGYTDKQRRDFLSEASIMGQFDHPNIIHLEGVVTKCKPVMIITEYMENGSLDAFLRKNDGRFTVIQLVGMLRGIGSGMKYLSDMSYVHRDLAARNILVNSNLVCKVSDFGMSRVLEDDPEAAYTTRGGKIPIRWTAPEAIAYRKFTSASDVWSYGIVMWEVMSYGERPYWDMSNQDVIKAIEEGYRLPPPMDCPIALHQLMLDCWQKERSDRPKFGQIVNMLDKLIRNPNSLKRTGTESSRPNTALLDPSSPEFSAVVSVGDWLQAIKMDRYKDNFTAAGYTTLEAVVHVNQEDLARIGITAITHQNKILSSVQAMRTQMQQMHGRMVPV
Procedure, shortened: as §1

[13] = target: T12, ~100 representative kinases (Homo sapiens, UniProt Q9Y6E0); settings: protein MST3; average of three replicates
T12 construct: Recombinant protein kinase domains with a concentration of 2 μM
T12 sequence (Q9Y6E0 whole entry, the tested form may be a part): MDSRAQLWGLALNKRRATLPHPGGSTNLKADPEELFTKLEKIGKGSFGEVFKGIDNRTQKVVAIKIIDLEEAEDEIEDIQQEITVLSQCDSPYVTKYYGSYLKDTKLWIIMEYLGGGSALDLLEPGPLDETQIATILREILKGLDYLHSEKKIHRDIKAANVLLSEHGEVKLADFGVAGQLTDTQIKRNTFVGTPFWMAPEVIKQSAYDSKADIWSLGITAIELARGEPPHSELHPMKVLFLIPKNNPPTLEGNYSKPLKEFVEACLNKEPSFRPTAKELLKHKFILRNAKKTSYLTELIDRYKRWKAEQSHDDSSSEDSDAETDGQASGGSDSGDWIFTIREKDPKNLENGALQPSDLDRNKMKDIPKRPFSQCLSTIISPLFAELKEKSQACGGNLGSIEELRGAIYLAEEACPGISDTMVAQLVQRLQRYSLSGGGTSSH
Procedure, shortened: as §1

[14] = target: T13, ~100 representative kinases (Homo sapiens, UniProt P28482); settings: protein MAPK1; average of three replicates
T13 construct: Recombinant protein kinase domains with a concentration of 2 μM
T13 sequence (P28482 whole entry, the tested form may be a part): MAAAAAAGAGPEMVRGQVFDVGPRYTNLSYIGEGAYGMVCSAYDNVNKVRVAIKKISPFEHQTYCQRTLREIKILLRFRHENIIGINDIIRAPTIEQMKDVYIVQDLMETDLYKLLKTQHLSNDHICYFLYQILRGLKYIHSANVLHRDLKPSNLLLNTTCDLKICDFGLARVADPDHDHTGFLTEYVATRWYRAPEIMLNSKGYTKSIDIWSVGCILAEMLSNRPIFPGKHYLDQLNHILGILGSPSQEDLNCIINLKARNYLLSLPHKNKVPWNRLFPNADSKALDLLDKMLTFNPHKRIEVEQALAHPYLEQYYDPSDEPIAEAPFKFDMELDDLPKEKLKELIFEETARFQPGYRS
Procedure, shortened: as §1

[15] = target: T14, ~100 representative kinases (Homo sapiens, UniProt O43293); settings: Protein DAPK3; average of three replicates
T14 construct: Recombinant protein kinase domains with a concentration of 2 μM
T14 sequence (O43293 whole entry, the tested form may be a part): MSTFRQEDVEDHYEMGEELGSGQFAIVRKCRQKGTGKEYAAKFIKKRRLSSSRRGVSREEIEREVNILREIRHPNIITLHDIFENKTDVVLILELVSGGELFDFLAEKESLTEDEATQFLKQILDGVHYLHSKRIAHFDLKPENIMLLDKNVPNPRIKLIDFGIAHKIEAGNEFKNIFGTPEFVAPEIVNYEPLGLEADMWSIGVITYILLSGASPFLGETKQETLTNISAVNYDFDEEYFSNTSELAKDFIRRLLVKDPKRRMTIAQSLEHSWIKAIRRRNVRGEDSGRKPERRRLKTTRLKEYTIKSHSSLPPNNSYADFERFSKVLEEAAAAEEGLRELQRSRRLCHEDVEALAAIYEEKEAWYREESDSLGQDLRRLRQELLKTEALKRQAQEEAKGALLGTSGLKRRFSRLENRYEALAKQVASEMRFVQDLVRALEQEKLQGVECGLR
Procedure, shortened: as §1

[16] = target: T15, ~100 representative kinases (Homo sapiens, UniProt O15075); settings: Protein DCAMKL1; average of three replicates
T15 construct: Recombinant protein kinase domains with a concentration of 2 μM
T15 sequence (O15075 whole entry, the tested form may be a part): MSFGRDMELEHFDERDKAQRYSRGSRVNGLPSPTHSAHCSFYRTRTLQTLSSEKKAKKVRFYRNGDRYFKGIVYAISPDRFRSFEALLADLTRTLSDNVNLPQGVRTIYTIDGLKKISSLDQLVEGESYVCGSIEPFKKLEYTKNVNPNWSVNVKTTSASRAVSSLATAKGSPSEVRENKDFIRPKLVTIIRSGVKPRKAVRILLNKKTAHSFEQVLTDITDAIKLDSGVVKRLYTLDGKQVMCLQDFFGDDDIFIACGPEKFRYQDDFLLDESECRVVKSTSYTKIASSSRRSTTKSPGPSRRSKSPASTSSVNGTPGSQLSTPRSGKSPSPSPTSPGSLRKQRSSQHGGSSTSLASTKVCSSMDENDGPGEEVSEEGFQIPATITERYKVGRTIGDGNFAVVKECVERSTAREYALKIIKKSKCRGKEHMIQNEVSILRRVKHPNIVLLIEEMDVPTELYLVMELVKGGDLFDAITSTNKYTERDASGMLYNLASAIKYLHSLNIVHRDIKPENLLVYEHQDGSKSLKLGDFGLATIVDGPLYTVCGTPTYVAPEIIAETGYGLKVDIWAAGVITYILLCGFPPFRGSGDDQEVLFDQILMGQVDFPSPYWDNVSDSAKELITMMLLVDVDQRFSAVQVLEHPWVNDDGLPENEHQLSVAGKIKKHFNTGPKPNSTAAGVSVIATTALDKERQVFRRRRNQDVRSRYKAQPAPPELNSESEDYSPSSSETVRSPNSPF
Procedure, shortened: as §1

[17] = target: T16, ~100 representative kinases (Homo sapiens, UniProt P49759); settings: Protein CLK1; average of three replicates
T16 construct: Recombinant protein kinase domains with a concentration of 2 μM
T16 sequence (P49759 whole entry, the tested form may be a part): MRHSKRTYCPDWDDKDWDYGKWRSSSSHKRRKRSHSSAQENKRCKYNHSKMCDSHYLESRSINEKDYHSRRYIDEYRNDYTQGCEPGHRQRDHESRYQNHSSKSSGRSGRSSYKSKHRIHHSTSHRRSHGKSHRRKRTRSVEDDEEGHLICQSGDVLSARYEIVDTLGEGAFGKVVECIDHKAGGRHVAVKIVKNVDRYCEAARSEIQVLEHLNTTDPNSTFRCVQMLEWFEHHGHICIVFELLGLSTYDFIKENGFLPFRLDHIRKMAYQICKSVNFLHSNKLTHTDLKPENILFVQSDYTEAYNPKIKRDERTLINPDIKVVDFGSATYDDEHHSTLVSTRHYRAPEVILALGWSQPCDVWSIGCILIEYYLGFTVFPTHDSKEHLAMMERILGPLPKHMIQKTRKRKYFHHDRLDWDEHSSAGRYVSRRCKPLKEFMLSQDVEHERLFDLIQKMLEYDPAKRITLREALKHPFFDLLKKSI
Procedure, shortened: as §1

[18] = number of kinases with thermal shift >5 K divided by total number of kinases screened
[19] = selectivity score: # >5K divided by # of proteins tested in the DSF panel

Row | dTm [1] | dTm [2] | dTm [3] | dTm [4] | dTm [5] | dTm [6] | S(5K) [6, 18] | # >5K [6] | S(5K) [6, 19] | dTm [7] | dTm [8] | dTm [9] | dTm [10] | dTm [11] | dTm [12] | dTm [13] | dTm [14] | dTm [15] | dTm [16] | dTm [17] | Structure (SMILES)
1 | 1.90 K | 8.66 K | 2.33 K | 4.87 K | 2.20 K | 1.19 K | 0.37 | 37 | 0.370 | 8.61 K | 2.32 K | 10.20 K | 0.45 K | 12.04 K | 4.09 K | 4.95 K | 0.06 K | 8.55 K | 2.89 K | 9.39 K | O=C(Nc1ccc(Cl)cc1)C1(C(=O)Nc2cccc(-c3c[nH]c4ncnc(N5CCOCC5)c34)c2)CC1 [Compound 13]
2 | 0.71 K | 6.21 K | 1.54 K | 2.40 K | 0.91 K | -1.11 K | 0.22 | 22 | 0.220 | 4.70 K | 1.16 K | 7.94 K | 0.32 K | 7.30 K | 2.64 K | 4.56 K | -0.09 K | 4.16 K | -0.07 K | 6.84 K | Cc1ccc(NC(=O)C2(C(=O)Nc3cccc(-c4c[nH]c5ncnc(N6CCOCC6)c45)c3)CC2)cc1 [Compound 14]
3 | 1.24 K | 4.64 K | 0.69 K | 2.88 K | 1.12 K | -2.47 K | 0.23 | 23 | 0.230 | 6.64 K | 1.18 K | 8.42 K | -0.80 K | 5.47 K | 2.16 K | 2.23 K | -0.47 K | 3.77 K | 0.05 K | 6.65 K | CCc1ccc(NC(=O)C2(C(=O)Nc3cccc(-c4c[nH]c5ncnc(N6CCOCC6)c45)c3)CC2)cc1 [Compound 15]
4 | 0.23 K | 3.37 K | 0.35 K | 0.51 K | 0.60 K | -2.19 K | 0.10 | 10 | 0.100 | 2.09 K | -0.15 K | 5.34 K | 0.25 K | 3.35 K | -0.05 K | 1.58 K | -0.34 K | 1.15 K | -1.88 K | 7.75 K | COc1ccc(NC(=O)C2(C(=O)Nc3cccc(-c4c[nH]c5ncnc(N6CCOCC6)c45)c3)CC2)cc1 [Compound 16]
5 | 1.09 K | 5.87 K | 2.20 K | 3.44 K | 1.14 K | 0.26 K | 0.32 | 32 | 0.320 | 6.96 K | 1.80 K | 7.68 K | 0.71 K | 8.69 K | 1.24 K | 6.82 K | -0.20 K | 8.69 K | 1.90 K | 8.95 K | O=C(Nc1cccc(-c2c[nH]c3ncnc(N4CCOCC4)c23)c1)C1(C(=O)Nc2ccc(F)c(F)c2)CC1 [Compound 17]
6 | 1.00 K | 6.93 K | 0.31 K | 4.42 K | 1.71 K | 0.45 K | 0.36 | 36 | 0.360 | 9.48 K | 2.24 K | 8.55 K | 1.04 K | 12.10 K | 1.94 K | 6.96 K | 0.11 K | 10.62 K | 2.36 K | 9.40 K | O=C(Nc1cccc(-c2c[nH]c3ncnc(N4CCOCC4)c23)c1)C1(C(=O)Nc2ccc(F)c(Cl)c2)CC1 [Compound 18]
7 | -0.34 K | 6.49 K | 1.49 K | 5.09 K | 1.65 K | 1.82 K | 0.31 | 32 | 0.308 | 0.00 K | 1.45 K | 7.71 K | -0.15 K | 7.58 K | 1.78 K | 3.29 K | -0.09 K | 8.34 K | 4.80 K | 8.69 K | O=C(Nc1cccc(-c2c[nH]c3ncnc(N4CCOCC4)c23)c1)C1(C(=O)Nc2ccc(F)c(Br)c2)CC1 [Compound 19]
8 | 1.71 K | 7.60 K | 1.31 K | 5.99 K | 1.43 K | -0.20 K | 0.42 | 42 | 0.420 | 10.15 K | 3.28 K | 10.06 K | 0.62 K | 13.77 K | 3.23 K | 8.98 K | 0.024 K | 10.09 K | 2.29 K | 11.22 K | Cc1cc(NC(=O)C2(C(=O)Nc3cccc(-c4c[nH]c5ncnc(N6CCOCC6)c45)c3)CC2)ccc1F [Compound 20]
